The target of the test is Furin (Homo sapiens, UniProt P09958).

In ChEMBL document CHEMBL1156471, “Targeting host cell furin proprotein convertases as a therapeutic strategy against bacterial toxins and viral pathogens” (J Biol Chem, 2007) one finds Ki data, which are given here for 53 compounds.

Non-standard residues stand in square brackets, D forms with d. Residues, ends and D or L forms follow the SMILES beside them. Nle = CCCC[C@H](N)C(=O)O; βAla = NCCC(=O)O; Sar = CNCC(=O)O Bounds are passed on as bounds.

Furin, sequence (P09958 whole entry): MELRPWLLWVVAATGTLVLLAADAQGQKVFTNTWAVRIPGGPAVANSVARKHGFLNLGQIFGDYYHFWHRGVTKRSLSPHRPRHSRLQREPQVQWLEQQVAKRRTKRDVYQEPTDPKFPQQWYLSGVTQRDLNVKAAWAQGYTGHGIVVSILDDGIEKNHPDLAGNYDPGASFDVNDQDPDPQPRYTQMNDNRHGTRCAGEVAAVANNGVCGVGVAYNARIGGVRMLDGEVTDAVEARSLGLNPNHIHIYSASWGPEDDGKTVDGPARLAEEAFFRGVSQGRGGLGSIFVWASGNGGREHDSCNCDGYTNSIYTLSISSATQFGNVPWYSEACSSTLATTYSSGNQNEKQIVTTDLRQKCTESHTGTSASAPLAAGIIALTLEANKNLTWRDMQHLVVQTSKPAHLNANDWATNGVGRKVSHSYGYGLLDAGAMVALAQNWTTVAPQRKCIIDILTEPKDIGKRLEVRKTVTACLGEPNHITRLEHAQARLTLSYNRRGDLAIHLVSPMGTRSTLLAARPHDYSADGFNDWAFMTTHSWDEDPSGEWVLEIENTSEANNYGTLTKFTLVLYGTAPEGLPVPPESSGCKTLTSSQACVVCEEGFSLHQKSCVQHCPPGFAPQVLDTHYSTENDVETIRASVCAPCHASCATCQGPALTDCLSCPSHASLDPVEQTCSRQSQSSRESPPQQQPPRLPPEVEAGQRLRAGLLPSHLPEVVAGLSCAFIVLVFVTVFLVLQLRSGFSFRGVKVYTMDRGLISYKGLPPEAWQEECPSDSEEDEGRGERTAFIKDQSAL

`CCCC[C@H](NC(=O)[C@H](CCCN=C(N)N)NC(=O)[C@H](CCCCN)NC(=O)[C@H](CCCCN)NC(=O)[C@H](CCCN=C(N)N)NC(=O)[C@H](CCCN=C(N)N)NC(=O)[C@H](CCCN=C(N)N)NC(=O)[C@H](C)NC(=O)[C@H](CCCN=C(N)N)NC(=O)[C@H](CCC(N)=O)NC(=O)[C@@H]1CCCN1C(=O)[C@@H](N)[C@@H](C)O)C(=O)O` (H-TPQRARRRKKR[Nle]-OH): the Ki (in general, a dissociation constant, usually derived from enzyme kinetics or from competition with a known ligand) is above 100 nM. `C[C@@H](O)[C@H](N)C(=O)N1CCC[C@H]1C(=O)N[C@@H](CCCNC(=N)N)C(=O)NCCC(=O)N[C@@H](CCCNC(=N)N)C(=O)N[C@@H](CCCNC(=N)N)C(=O)N[C@@H](CCCNC(=N)N)C(=O)N[C@@H](CCCCN)C(=O)N[C@@H](CCCCN)C(=O)N[C@@H](CCCNC(=N)N)C(=O)NCC(N)=O` returned a Ki above 100 nM.

H-TPRARRRKKRA-OH gave a Ki above 100 nM.

On to `C[C@H](NC(=O)[C@H](CCCN=C(N)N)NC(=O)[C@@H]1CCCN1C(=O)[C@@H](N)[C@@H](C)O)C(=O)N[C@@H](CCCN=C(N)N)C(=O)N[C@@H](CCCN=C(N)N)C(=O)N[C@@H](CCCN=C(N)N)C(=O)N[C@@H](CCCCN)C(=O)N[C@@H](CCCCN)C(=O)N[C@@H](CCCN=C(N)N)C(=O)N(C)CC(=O)O`, for which the inhibition constant Ki was above 100 nM. Then H-TPQRARRRKKRA-OH, with 115 nM; and `C[C@H](NC(=O)[C@H](C)NC(=O)[C@H](CCC(=O)O)NC(=O)[C@H](CCCNC(=N)N)NC(=O)[C@@H]1CCCN1C(=O)[C@@H](N)[C@@H](C)O)C(=O)N[C@@H](C)C(=O)N[C@@H](CCCCN)C(=O)N[C@@H](CCCCN)C(=O)N[C@@H](CCCNC(=N)N)C(=O)N(C)CC(=O)O` (H-TPREAAAKKR[Sar]-OH), with above 100 nM.

Turning to H-GGGGGGTPRARRRKKRY-OH, the affinity, expressed as Ki, was 54 nM. For H-TPRRRRRKKRG-NH2, the inhibition constant (Ki) was above 100 nM.

H-TPRSRRRKKRG-NH2 came in with an inhibition constant (Ki) above 100 nM. `C[C@H](NC(=O)[C@H](C)NC(=O)[C@H](CCCNC(=N)N)NC(=O)[C@@H]1CCCN1C(=O)[C@@H](N)[C@@H](C)O)C(=O)N[C@@H](CCCNC(=N)N)C(=O)N[C@@H](CCCNC(=N)N)C(=O)N[C@@H](CCCCN)C(=O)N[C@@H](CCCCN)C(=O)N[C@@H](CCCNC(=N)N)C(=O)N(C)CC(=O)O` (H-TPRAARRKKR[Sar]-OH): the Ki is above 100 nM.

Take H-APRERRRKKRV-OH: the inhibitory constant (Ki) is above 100 nM. Next, H-AARERRRKKR-OH: above 100 nM; H-TPRCRRRKKRG-OH: above 100 nM. Then H-TPQRARRRKKRS-OH, with above 100 nM; and H-TPQRARRRKKRD-OH, with 50 nM; and `C[C@H](NC(=O)[C@H](C)NC(=O)[C@@H]1CCCN1C(=O)[C@@H](N)[C@@H](C)O)C(=O)N[C@@H](C)C(=O)N[C@@H](CCCNC(=N)N)C(=O)N[C@@H](CCCNC(=N)N)C(=O)N[C@@H](CCCCN)C(=O)N[C@@H](CCCCN)C(=O)N[C@@H](CCCNC(=N)N)C(=O)N(C)CC(=O)O` (H-TPAAARRKKR[Sar]-OH), with above 100 nM. As for `C[C@@H](O)[C@H](N)C(=O)N1CCC[C@H]1C(=O)N[C@@H](CCCNC(=N)N)C(=O)N[C@H](CCC(=O)O)C(=O)N[C@@H](CCCNC(=N)N)C(=O)N[C@@H](CCCNC(=N)N)C(=O)N[C@@H](CCCNC(=N)N)C(=O)N[C@@H](CCCCN)C(=O)N[C@@H](CCCCN)C(=O)N[C@@H](CCCNC(=N)N)C(=O)NCC(=O)O`, the Ki is above 100 nM. In turn, `C[C@@H](O)[C@H](N)C(=O)N1CCC[C@H]1C(=O)N[C@@H](CCCNC(=N)N)C(=O)N[C@@H](CCC(=O)O)C(=O)N[C@@H](CCCNC(=N)N)C(=O)N[C@@H](CCCNC(=N)N)C(=O)N[C@@H](CCCNC(=N)N)C(=O)N[C@@H](CCCCN)C(=O)N[C@@H](CCCCN)C(=O)N[C@@H](CCCNC(=N)N)C(=O)N(C)CC(=O)O` (H-TPRERRRKKR[Sar]-OH) registered an inhibitory constant (Ki) above 100 nM.

Consider `C[C@@H](O)[C@H](N)C(=O)N1CCC[C@H]1C(=O)N[C@@H](CCCN=C(N)N)C(=O)N[C@@H](CCCNC(N)=O)C(=O)N[C@@H](CCCN=C(N)N)C(=O)N[C@@H](CCCN=C(N)N)C(=O)N[C@@H](CCCN=C(N)N)C(=O)N[C@@H](CCCCN)C(=O)N[C@@H](CCCCN)C(=O)N[C@@H](CCCN=C(N)N)C(=O)NCC(=O)O`, for which the inhibition constant Ki was above 100 nM. Next, H-TPRPRRRKKRG-OH: above 100 nM; H-TPRERRAAKRG-OH: above 100 nM.

For the compound H-TPQRARRRKKRC-OH, the Ki was above 100 nM. Turning to H-TPRARRRKKRI-OH, the affinity, expressed as Ki, was 30 nM. The compound H-TPAAARRKKRG-OH returned a Ki above 100 nM.

H-TPRARRRKKRQ-OH registered an inhibition constant (Ki) of 47 nM.

As to H-GGGTPQRARRRKKRW-OH, the Ki was 67 nM.

Turning to H-TPRDRRRKKRG-OH, the Ki was above 100 nM. For H-TPQRARRRKKRP-OH, the inhibition constant Ki is above 100 nM. `CSCC[C@H](NC(=O)[C@H](CCCN=C(N)N)NC(=O)[C@H](CCC(N)=O)NC(=O)[C@@H]1CCCN1C(=O)[C@@H](N)[C@@H](C)O)C(=O)N[C@@H](CCCN=C(N)N)C(=O)N[C@@H](CCCN=C(N)N)C(=O)N[C@@H](CCCN=C(N)N)C(=O)N[C@@H](CCCCN)C(=O)N[C@@H](CCCCN)C(=O)N[C@@H](CCCNC(=N)N)C(=O)NCC(=O)O` showed a Ki above 100 nM. Compound `C[C@H](NC(=O)[C@H](C)NC(=O)[C@@H]1CCCN1C(=O)[C@@H](N)[C@@H](C)O)C(=O)N[C@@H](CCCN=C(N)N)C(=O)N[C@@H](CCCN=C(N)N)C(=O)N[C@@H](CCCN=C(N)N)C(=O)N[C@@H](CCCCN)C(=O)N[C@@H](CCCCN)C(=O)N[C@@H](CCCN=C(N)N)C(=O)N(C)CC(=O)O` (H-TPAARRRKKR[Sar]-OH) registered a Ki above 100 nM. Next, H-TPQRTRRRKKRG-OH: above 100 nM; `C[C@@H](O)[C@H](N)C(=O)N1CCC[C@H]1C(=O)N[C@@H](CCCNC(=N)N)C(=O)N[C@@H](CCC(=O)O)C(=O)N[C@@H](CCCNC(=N)N)C(=O)N[C@@H](CCCNC(=N)N)C(=O)N[C@@H](CCCNC(=N)N)C(=O)N[C@@H](CCCCN)C(=O)N[C@@H](CCCCN)C(=O)N[C@@H](CCCNC(=N)N)C(=O)NCC(=O)O`: above 100 nM; `C[C@H](NC(=O)[C@H](CCCNC(=N)N)NC(=O)[C@@H]1CCCN1C(=O)[C@@H](N)[C@@H](C)O)C(=O)N[C@@H](CCCNC(=N)N)C(=O)N[C@@H](CCCNC(=N)N)C(=O)N[C@@H](CCCNC(=N)N)C(=O)N[C@@H](CCCCN)C(=O)N[C@@H](CCCCN)C(=O)N[C@@H](CCCNC(=N)N)C(=O)N[C@@H](CS)C(N)=O`: above 100 nM. Consider `C[C@@H](O)[C@H](N)C(=O)N1CCC[C@H]1C(=O)N[C@@H](CCC(N)=O)C(=O)N[C@@H](CCCNC(=N)N)C(=O)N[C@@H](CCC(=O)O)C(=O)N[C@@H](CCCNC(=N)N)C(=O)N[C@@H](CCCNC(=N)N)C(=O)N[C@@H](CCCNC(=N)N)C(=O)N[C@@H](CCCCN)C(=O)N[C@@H](CCCCN)C(=O)N[C@@H](CCCNC(=N)N)C(=O)NCC(=O)O`, for which the inhibitory constant (Ki) was above 100 nM. H-TPREAAAKKRV-OH registered an inhibitory constant (Ki) above 100 nM. With `C[C@H](NC(=O)[C@H](CCCCN)NC(=O)[C@H](CCCNC(=N)N)NC(=O)[C@H](CCCNC(=N)N)NC(=O)[C@H](CCCNC(=N)N)NC(=O)[C@H](CCC(=O)O)NC(=O)[C@H](CCCNC(=N)N)NC(=O)[C@@H]1CCCN1C(=O)[C@@H](N)[C@@H](C)O)C(=O)N[C@@H](C)C(=O)N(C)CC(=O)O` (H-TPRERRRKAA[Sar]-OH), the Ki is above 100 nM.

For H-TARERRRKKRV-OH, the inhibition constant Ki is above 100 nM. For `C[C@H](NC(=O)[C@H](CCC(=O)O)NC(=O)[C@H](CCCNC(=N)N)NC(=O)[C@@H]1CCCN1C(=O)[C@@H](N)[C@@H](C)O)C(=O)N[C@@H](CCCNC(=N)N)C(=O)N[C@@H](CCCNC(=N)N)C(=O)N[C@@H](CCCCN)C(=O)N[C@@H](CCCCN)C(=O)N[C@@H](CCCNC(=N)N)C(=O)N(C)CC(=O)O` (H-TPREARRKKR[Sar]-OH), the inhibition constant (Ki) is above 100 nM. Then H-TPRVRRRKKRG-OH, with above 100 nM; and H-TPQRARRRKKRI-OH, with above 100 nM.

In turn, `CSC[C@H](NC(=O)[C@H](CCCNC(=N)N)NC(=O)[C@H](CCCCN)NC(=O)[C@H](CCCCN)NC(=O)[C@H](CCCNC(=N)N)NC(=O)[C@H](CCCNC(=N)N)NC(=O)[C@H](CCCNC(=N)N)NC(=O)[C@H](C)NC(=O)[C@H](CCCNC(=N)N)NC(=O)[C@H](CCC(N)=O)NC(=O)[C@@H]1CCCN1C(=O)[C@@H](N)[C@@H](C)O)C(=O)O` (H-TPQRARRRKKRC(Me)-OH) came in with an inhibitory constant (Ki) of 93 nM.

H-TPQRYRRRKKRG-OH returned an inhibition constant Ki above 100 nM. Then H-TPRERARKKRV-OH, with above 100 nM; and H-TPRERARKKR-OH, with above 100 nM; and `C[C@@H](O)[C@H](N)C(=O)N1CCC[C@H]1C(=O)N[C@@H](CCC(N)=O)C(=O)N[C@@H](CCCNC(=N)N)C(=O)NC1(C(=O)N[C@@H](CCCNC(=N)N)C(=O)N[C@@H](CCCNC(=N)N)C(=O)N[C@@H](CCCNC(=N)N)C(=O)N[C@@H](CCCCN)C(=O)N[C@@H](CCCCN)C(=O)NC2(C(=O)NCC(=O)O)CCCC2)CCCC1`, with above 100 nM. Next, `C[C@H](NC(=O)[C@H](CCCN=C(N)N)NC(=O)[C@H](CCC(N)=O)NC(=O)[C@@H]1CCCN1C(=O)[C@@H](N)[C@@H](C)O)C(=O)N[C@@H](CCCN=C(N)N)C(=O)N[C@@H](CCCN=C(N)N)C(=O)N[C@@H](CCCN=C(N)N)C(=O)N[C@@H](CCCCN)C(=O)N[C@@H](CCCCN)C(=O)N[C@@H](CCCN=C(N)N)C(=O)NCCC(=O)O` (H-TPQRARRRKKR[βAla]-OH): above 100 nM; `C[C@@H](O)[C@H](N)C(=O)N1CCC[C@H]1C(=O)N[C@@H](CCC(N)=O)C(=O)N[C@@H](CCCN=C(N)N)C(=O)N[C@@H](CCCCN)C(=O)N[C@@H](CCCN=C(N)N)C(=O)N[C@@H](CCCN=C(N)N)C(=O)N[C@@H](CCCN=C(N)N)C(=O)N[C@@H](CCCCN)C(=O)N[C@@H](CCCCN)C(=O)N[C@@H](CCCNC(=N)N)C(=O)NCC(=O)O`: above 100 nM; H-TPREARRKKRG-OH: above 100 nM. Then H-TPRERRAKKR-OH, with above 100 nM. H-TPRARRRKKRG-NH2: the inhibition constant Ki turned out to be 57 nM. That is a double-digit nanomolar value. H-TPREARRKKRV-OH returned an inhibition constant Ki above 100 nM. `C[C@H](NC(=O)[C@H](CCCNC(=N)N)NC(=O)[C@H](CCCNC(=N)N)NC(=O)[C@H](CCC(=O)O)NC(=O)[C@H](CCCNC(=N)N)NC(=O)[C@@H]1CCCN1C(=O)[C@@H](N)[C@@H](C)O)C(=O)N[C@@H](CCCCN)C(=O)N[C@@H](CCCCN)C(=O)N[C@@H](CCCNC(=N)N)C(=O)N(C)CC(=O)O` (H-TPRERRAKKR[Sar]-OH): the Ki was above 100 nM. Next, H-TPRERRAKKRG-NH2: above 100 nM.
